“And” between values parts separate entries of the source, which are not always exact repeats. Equal entries are not always repeated. “Also recorded” adds a separate entry of the source.
Experiments:
metastatic solid tumors = assay: Phase II study: assessment of tumor response by CT-scan, ECOG criteria; type: in vivo, human; set-up: key to Response on dox: PD = progressive disease; PR = partial remission; SD = stabile disease; conditions: for partial remission maintained, time after the start of chemotherapy: maintained up to the present
Procedure: Patients with metastatic solid tumors were entered when they received a DOX-based chemotherapy regimen with a dosage of DOX ≥ 50 mg/m^2/ cycle and an infusion duration ≤ 1 hour. […] The left ventricular ejection fraction (LVEF) was > 50%. Patients were excluded if they had received prior anthracyclines, had prior or actual cardiovascular disease or had prior radiotherapy to the mediastinum.
(§1) MonoHER was administered as a 10 min intravenous infusion at a dose of 1500 mg/m^2 60 min before every DOX administration. If cardiotoxicity would be observed in the first three evaluable patients, administration according to this dosing scheme would be changed and the following patients would receive DOX infusion either immediately after monoHER (because in plasma and heart Cmax of monoHER is obtained immediately after the end of infusion (17, 19)) or with an interval of 2 hours (to give monoHER the opportunity to convert into an active metabolite, if any).
Assessment of tumor response was done every 2-3 cycles by CT-scan, using standard ECOG criteria (24).

cardiomyocytes [1] = assay: Phase II study: endomyocardial biopsy scored by electron microscopy for DOX-induced cardiotoxicity; type: in vivo, human; conditions: for Biopsy score cum.dose/Δt/grade: left ventricle; for Cum.dose / biopsy score / LVEF: biopsy score: second biopsy
Procedure: In this example, we evaluated the cardioprotective properties of monoHER given as a 10 minute i.v infusion at a dose of 1500 mg/m^2 in patients with metastatic cancer treated with DOX. For the early detection of DOX-induced cardiotoxicity endomyocardial biopies were taken, because of its high sensitivity and high specificity (18).
as §1
(§2) After a cumulative dose of 300 mg/m^2 DOX an endomyocardial biopsy was performed and measurement of the LVEF was repeated. The latter was also done at least 3 weeks after the last dose of DOX and a biopsy was repeated if possible. For logistic reasons, the biopsy of patient #8 was done after a cumulative dose of 375 mg/m^2 DOX.
During a left heart catheterization, a 104 cm, 7 french biopsy forceps was used to obtain tissue from the left ventricle. Three to four specimens 0.5 to 1 mm in diameter were obtained. The specimens were fixed in 4% buffered formaldehyde and prepared for electron microscopy.
After fixation in 4% buffered formaldehyde, the heart tissue was post fixed in 1% osmium tetroxide. The tissue was then dehydrated through a graded series of ethanol solutions of 70-95% and embedded in JB-4 Plus resin. Thereafter, 0.5-3.0 µm thick sections were cut with a glass knife. These semithin sections were processed for electron microscopy. Cardiomyocytes with more than 2 microvacuoles, macrovacuoles and/or loss of myofibrils were counted as deviant. The morphological grade determined from the specimens examined by electron microscopy was scored on a 6-point scale previously described by Billingham and Bristow (20, 21): in grade 0 cells are normal; in grade 1, 1.5, 2 and 2.5 deviant cells are < 5%, 5-15%, 16 - 25 % and 26 - 35%, respectively; in grade 3 cell damage is present in more than 35% of cells.

[2] = system: doxorubicin-induced chronic cardiotoxicity; conditions: preclinical, cited from earlier work
[3] = cited from earlier work
[4] = Detection of metabolites of monoHER
[5] = Phase II study: adverse events and laboratory monitoring; type: in vivo, human
Procedure: as §1
(§3) Before starting the study patients were evaluated by a full blood count, serum biochemistry including liver function tests, lactate dehydrogenase (LDH) and cholesterol. Risk factors for cardiovascular disease were also evaluated. An LVEF and an ECG were performed before entry into the study.
(§4) Every subsequent administration of monoHER and DOX was preceded by a full blood count, liver enzymes, serum creatinine and a routine 12-lead ECG. A complete blood count was also done 10 days after the chemotherapy.

[6] = Phase II study: monitoring of cardiac function (LVEF, ECG); type: in vivo, human
Procedure: as §3, §4, §2
Patients went off study in case of progressive disease, a serious cardiac event, or other events that precluded further treatment. Criteria described by Shapiro et al. (22) were used for diagnosis of cardiac events. Episodes of cardiac dysfunction were characterized according to the New York Heart Association functional classification (23).

STS = STS patients without prior chemotherapy; DOX alone; cited from earlier work
cardiomyocytes [7] = conditions: cited from earlier work
[8] = patient 03, cum. dose 480 mg/m^2 DOX
[9] = patient 04, cum. dose 450 mg/m^2 DOX

## C[C@@H]1O[C@@H](OC[C@H]2O[C@@H](Oc3c(-c4ccc(O)c(O)c4)oc4cc(OCCO)cc(O)c4c3=O)[C@H](O)[C@@H](O)[C@@H]2O)[C@H](O)[C@H](O)[C@H]1O [monoHER, 7-monohydroxyethylrutoside]
Metastatic solid tumors; 4 patients with metastatic soft tissue sarcoma (STS), DOX preceded by monoHER 1500 mg/m^2
  patients with partial remission / objective remission: Three and 3 of the four
Metastatic solid tumors; STS patients
  effect on antitumour activity of DOX: enhances the antitumour activity of DOX
Metastatic solid tumors; patient 01, Breast cancer, total DOX 100 mg/m^2, monoHER 1500 mg/m^2 i.v. 60 min before every DOX
  Response on dox: PD
Metastatic solid tumors; patient 02, Adrenal cortical cancer, total DOX 150 mg/m^2, monoHER 1500 mg/m^2 i.v. 60 min before every DOX
  Response on dox: PD
Metastatic solid tumors; patient 03, Malignant peripheral nerve sheet tumor, total DOX 480 mg/m^2, monoHER 1500 mg/m^2 i.v. 60 min before every DOX
  Response on dox: PR
Metastatic solid tumors; patient 04, Malignant fibrous histiocytoma, total DOX 450 mg/m^2, monoHER 1500 mg/m^2 i.v. 60 min before every DOX
  Response on dox: PR
Metastatic solid tumors; patient 05, Breast cancer, total DOX 100 mg/m^2, monoHER 1500 mg/m^2 i.v. 60 min before every DOX
  Response on dox: PD
Metastatic solid tumors; patient 06, Breast cancer, total DOX 300 mg/m^2, monoHER 1500 mg/m^2 i.v. 60 min before every DOX
  Response on dox: SD
Metastatic solid tumors; patient 07, Malignant fibrous histiocytoma, total DOX 300 mg/m^2, DOX immediately after monoHER 1500 mg/m^2 i.v.
  Response on dox: PR
Metastatic solid tumors; patient 08, Malignant fibrous histiocytoma, total DOX 375 mg/m^2, DOX 2 h after monoHER 1500 mg/m^2 i.v.
  Response on dox: SD
Metastatic solid tumors; patient #3, then progressive disease
  duration of partial remission: nine
Metastatic solid tumors; patient #4
  partial remission maintained, time after the start of chemotherapy: ≥ 30 months
Metastatic solid tumors; patient #7
  partial remission maintained, time after the start of chemotherapy: ≥ 16 months
Metastatic solid tumors; patient #8, continuing DOX up to cumulative dose of 495 mg/m^2
  duration of stable disease: at least 7 months
Cardiomyocytes [1]; 5 patients, median cumulative dose 300 mg/m2 DOX, monoHER 1500 mg/m^2 before DOX
  mean biopsy score according to Billingham: 2.7
Cardiomyocytes [1]; five patients with biopsy, monoHER 1500 mg/m^2
  cardioprotective effect against DOX-induced cardiotoxicity: no cardioprotective effect; also recorded: did not protect against DOX-induced cardiotoxicity
Cardiomyocytes [1]; patient 03, cum. dose 300 mg/m^2 DOX, Δt 60 min after monoHER 1500 mg/m^2
  Biopsy score cum.dose/Δt/grade: 300 / 60 / Grade 3 (in grade 3 cell damage is present in more than 35% of cells)
Cardiomyocytes [1]; [8]
  Cum.dose / biopsy score / LVEF: biopsy score: 3 (in grade 3 cell damage is present in more than 35% of cells)
Cardiomyocytes [1]; [9]
  Cum.dose / biopsy score / LVEF: biopsy score: 2.5 (in grade 1, 1.5, 2 and 2.5 deviant cells are < 5%, 5-15%, 16 - 25 % and 26 - 35%, respectively)
Cardiomyocytes [1]; patient 04, third biopsy
  Biopsy score 10 months after last cycle: 2 (in grade 1, 1.5, 2 and 2.5 deviant cells are < 5%, 5-15%, 16 - 25 % and 26 - 35%, respectively)
Cardiomyocytes [1]; patient 06, cum. dose 300 mg/m^2 DOX, Δt 60 min after monoHER 1500 mg/m^2
  Biopsy score cum.dose/Δt/grade: 300 / 60 / Grade 2.5 (in grade 1, 1.5, 2 and 2.5 deviant cells are < 5%, 5-15%, 16 - 25 % and 26 - 35%, respectively)
Cardiomyocytes [1]; patient 07, cum. dose 300 mg/m^2 DOX, Δt 10 min after monoHER 1500 mg/m^2
  Biopsy score cum.dose/Δt/grade: 300 / 10 / Grade 3 (in grade 3 cell damage is present in more than 35% of cells)
Cardiomyocytes [1]; patient 08, cum. dose 375 mg/m^2 DOX, Δt 120 min after monoHER 1500 mg/m^2
  Biopsy score cum.dose/Δt/grade: 375 / 120 / Grade 3 (in grade 3 cell damage is present in more than 35% of cells)
Cardiomyocytes [1]; patient #3, after 300 mg/m^2 DOX, monoHER 60 min before DOX
  microvacuoles present in % of the cardiomyocytes: 52%
Cardiomyocytes [1]; patient #4, after 300 mg/m^2 DOX, monoHER 60 min before DOX
  microvacuoles present in % of the cardiomyocytes: 20%
Cardiomyocytes [1]; patient #6, after 300 mg/m^2 DOX, monoHER 60 min before DOX
  cardiomyocytes with > 2 small vacuoles per cardiomyocyte: 33%
Cardiomyocytes [1]; patient #7, DOX immediately after monoHER
  microvacuolization in % of the cardiomyocytes: 60%
Cardiomyocytes [1]; patient #8, DOX 2 h after monoHER
  microvacuolization in % of the cardiomyocytes: 49%
[2]; in vitro or in vivo
  influence on the antitumor activity of doxorubicin: did not influence the antitumor activity of doxorubicin
[2]; animals
  cardioprotection against doxorubicin-induced chronic cardiotoxicity: dose-dependent cardioprotection
[3]; dose 1500 mg/m^2
  Cmax and AUC: comparable to those obtained in mice under protecting conditions
[3]; up to a dose of 1500 mg/m^2
  side effects: No serious side effects were observed
[4]
  metabolites of monoHER: no metabolites of monoHER have been detected until now
[5]; 8 patients, sensation of fullness in stomach (one), itching in skin of neck (one), during each cycle
  adverse events during monoHER infusion: two patients reported adverse events
[5]; due to chemotherapy, recovered before the start of the next cycle
  leucopenia: all patients developed leucopenia
[5]; monoHER 1500 mg/m^2 plus DOX
  liver enzymes and serum creatinine: No disturbances
[6]; after 300-375 mg/m^2 DOX, no LVEF information for patient #6
  patients in whom the LVEF decreased: 4/5
[6]; all patients
  ECG during therapy: remained unchanged
[6]; all patients, during therapy
  cardiac dysfunction: no cardiac dysfunction occurred
[6]; patient 03
  LVEF 10 months after last cycle: ND / 51%
[6]; patient 03, LVEF before dox 71%, Δt 60 min
  LVEF after ≥ 300 mg/m^2: 67%
[6]; [8]
  Cum.dose / biopsy score / LVEF: LVEF: 53%
[6]; patient 04
  LVEF 10 months after last cycle: 62%
[6]; patient 04, LVEF before dox 72%, Δt 60 min
  LVEF after ≥ 300 mg/m^2: 60%
[6]; [9]
  Cum.dose / biopsy score / LVEF: LVEF: 66%
[6]; patient 07, LVEF before dox 75%, Δt 10 min
  LVEF after ≥ 300 mg/m^2: 63%
[6]; patient 08, LVEF before dox 65%, Δt 120 min, 375 mg/m^2 DOX
  LVEF after ≥ 300 mg/m^2: 63%
[6]; patient #3, after 480 mg/m2 DOX, 71% to 53%
  decline of LVEF compared to the ejection fraction before start of the study: 25%
[6]; patient #4, 72% before chemotherapy to 60% after 300 mg/m2 DOX
  decline of LVEF: > 15%
[6]; two other patients
  LVEF decrease in comparison to the initial LVEF: 4-6%
[6]; two patients
  LVEF drop in comparison to the initial LVEF: 16%

## COc1cccc2c1C(=O)c1c(O)c3c(c(O)c1C2=O)C[C@@](O)(C(=O)CO)C[C@@H]3O[C@H]1C[C@H](N)[C@H](O)[C@H](C)O1 [DOX, doxorubicin]
STS
  objective responses on DOX: approximately 25%
Cardiomyocytes [7]; cumulative DOX doses of 240 mg/m^2, data of Billingham et al.
  patients with anthracycline-induced myocardial damage: nearly all patients
Cardiomyocytes [7]; cumulative dose of 300 mg/m^2 DOX, linear regression analysis of Torti et al., right ventricle
  biopsy score expected after DOX alone: 1.4
